How the values were obtained:
HCV Genotype 1B Replicon = assay: Replicon assay, genotype 1b subgenomic replicon (ET cell line), luciferase readout; format: cell-based; conditions: Hepatitis C virus, 48 h, Table 3; luciferase activity after 48 hours
Procedure: (§1) Compounds were assayed for activity against HCV using the genotype 1a and 1b subgenomic replicon model systems. Stable cell lines bearing the genotype 1a and 1b replicons were used for screening of compounds. Both replicons are bicistonic and contain the firefly luciferase gene. The ET cell line is stably transfected with RNA transcripts harboring a I389luc-ubi-neo/NS3-3′/ET replicon with firefly luciferase-ubiquitin-neomycin phosphotransferase fusion protein and EMCV-IRES driven NS3-5B polyprotein containing the cell culture adaptive mutations (E1202G; T12801; K1846T) (Krieger at al, 2001 and unpublished). The genotype 1a replicon is a stable cell line licensed from Apath LLC, modified to contain the firefly luciferase gene. The cells were grown in DMEM, supplemented with 10% fetal calf serum, 2 mM Glutamine, Penicillin (100 IU/mL)/Streptomycin (100 μg/mL), 1× nonessential amino acids, and 250-500 μg/mL G418 (“Geneticin”). They were all available through Life Technologies (Bethesda, Md.). The cells were plated at 0.5×10^4 cells/well in 384 well plates containing compounds. The final concentration of compounds ranged between 0.03 μM to 50 μm and the final DMSO concentration of 0.5-1%.
(§2) Luciferase activity was measured 48 hours later by adding a Steady glo (Promega, Madison, Wis.). Percent inhibition of replication data was plotted relative to no compound control. Under the same condition, cytotoxicity of the compounds was determined using cell titer glo (Promega, Madison, Wis). IC50s were determined from a 10 point dose response curve using 3-4-fold serial dilution for each compound, which spans a concentration range >1000 fold. BioAssay determines the level of inhibition for each compound by normalizing cross-talk corrected plate values against the negative […] controls to determine Percent Inhibition:
(§3) These normalized values are exported to EC50 where they are plotted against the molar compound concentrations using the standard four parameter logistic equation: […]
(§4) Some EC50 measurements were repeated a second time and for both 1A and 1B genotypes after those reported in Table 2 for compounds 101-108 and the repeated data was reported in Table 3.

HCV Genotype 1A Replicon = assay: Replicon assay, genotype 1a subgenomic replicon, luciferase readout; format: cell-based; conditions: Hepatitis C virus, 48 h, Table 3; luciferase activity after 48 hours
Procedure: as §1, §2, §3, §4

Compound | EC50 (HCV Genotype 1B Replicon) [µM] | EC50 (HCV Genotype 1A Replicon) [µM]
O=C(c1nc2c(C(F)(F)F)cc(-c3cccnc3)cn2c1Cl)N1CCC(N2CCOC2=O)CC1 [Compound 136, 3-(1-{[3-chloro-6-(3-pyridinyl)-8-(trifluoromethyl)imidazo[1,2-a]pyridin-2-yl]carbonyl}-4-piperidinyl)-1,3-oxazolidin-2-one] | 1.84 | 0.32
O=C(c1nc2c(C(F)(F)F)cc(C3CCOC3)cn2c1Cl)N1CCC(N2CCOC2=O)CC1 (centres unmarked) [Compound 137, 3-(1-{[3-chloro-6-(tetrahydro-3-furanyl)-8-(trifluoromethyl)imidazo[1,2-a]pyridin-2-yl]carbonyl}-4-piperidinyl)-1,3-oxazolidin-2-one] | 1.27 | 0.31
CC(C)Oc1cc(C(F)(F)F)c2nc(C(=O)N3CCC(N4CCOC4=O)CC3)c(Cl)n2c1 [Compound 138, 3-(1-{[3-chloro-6-[(1-methylethyl)oxy]-8-(trifluoromethyl)imidazo[1,2-a]pyridin-2-yl]carbonyl}-4-piperidinyl)-1,3-oxazolidin-2-one] | 0.42 | 0.28
O=C(c1nc2c(C(F)(F)F)cc(-n3ccnc3)cn2c1Cl)N1CCC(N2CCOC2=O)CC1 [Compound 139, 3-(1-{[3-chloro-6-(1H-imidazol-1-yl)-8-(trifluoromethyl)imidazo[1,2-a]pyridin-2-yl]carbonyl}-4-piperidinyl)-1,3-oxazolidin-2-one] | ≥ 5.01 | 2.66
CC(C)Cc1cc(C(F)(F)F)c2nc(C(=O)N3CCC(N4C(=O)COC4=O)CC3)c(Cl)n2c1 [Compound 140, 3-(1-{[3-chloro-6-(2-methylpropyl)-8-(trifluoromethyl)imidazo[1,2-a]pyridin-2-yl]carbonyl}-4-piperidinyl)-1,3-oxazolidine-2,4-dione] | 0.15 | 0.05
CCC(C)c1cc(C(F)(F)F)c2nc(C(=O)N3CCC(N4CCOC4=O)CC3)c(Cl)n2c1 (centres unmarked) [Compound 141, 3-(1-{[3-chloro-6-(1-methylpropyl)-8-(trifluoromethyl)imidazo[1,2-a]pyridin-2-yl]carbonyl}-4-piperidinyl)-1,3-oxazolidin-2-one] | 0.55 | 0.16
O=C(c1nc2c(C(F)(F)F)cc(Br)cn2c1Cl)N1CCC(N2C(=O)COC2=O)CC1 [Compound 142, 3-(1-{[6-bromo-3-chloro-8-(trifluoromethyl)imidazo[1,2-a]pyridin-2-yl]carbonyl}-4-piperidinyl)-1,3-oxazolidine-2,4-dione] | 0.07 | 0.07
O=C(c1nc2c(C(F)(F)F)cc(Br)cn2c1Cl)N1CCC(N2CCCC2=O)CC1 [Compound 143, 1-(1-{[6-bromo-3-chloro-8-(trifluoromethyl)imidazo[1,2-a]pyridin-2-yl]carbonyl}-4-piperidinyl)-2-pyrrolidinone] | 0.2 | 0.48
O=C(c1nc2c(C(F)(F)F)cc(OC(F)F)cn2c1Cl)N1CCC(N2CCOC2=O)CC1 [Compound 144, 3-(1-{[3-chloro-6-[(difluoromethyl)oxy]-8-(trifluoromethyl)imidazo[1,2-a]pyridin-2-yl]carbonyl}-4-piperidinyl)-1,3-oxazolidin-2-one] | 0.05 | 0.02
O=C(c1nc2c(C(F)(F)F)cc(OC(F)F)cn2c1Cl)N1CCC(N2C(=O)COC2=O)CC1 [Compound 145, 3-(1-{[3-chloro-6-[(difluoromethyl)oxy]-8-(trifluoromethyl)imidazo[1,2-a]pyridin-2-yl]carbonyl}-4-piperidinyl)-1,3-oxazolidine-2,4-dione] | 0.05 | 0.05
O=C(c1nc2c(C(F)(F)F)cc(-c3ccco3)cn2c1Cl)N1CCC(N2CCOC2=O)CC1 [Compound 146, 3-(1-{[3-chloro-6-(2-furanyl)-8-(trifluoromethyl)imidazo[1,2-a]pyridin-2-yl]carbonyl}-4-piperidinyl)-1,3-oxazolidin-2-one] | 0.03 | 0.02
O=C(c1nc2c(C(F)(F)F)cc(-c3cc[nH]c3)cn2c1Cl)N1CCC(N2CCOC2=O)CC1 [Compound 147, 3-(1-{[3-chloro-6-(1H-pyrrol-3-yl)-8-(trifluoromethyl)imidazo[1,2-a]pyridin-2-yl]carbonyl}-4-piperidinyl)-1,3-oxazolidin-2-one] | 0.02 | 0.02
O=C(c1nc2c(C(F)(F)F)cc(-c3cn[nH]n3)cn2c1Cl)N1CCC(N2CCOC2=O)CC1 [Compound 148, 3-(1-{[3-chloro-6-(2H-1,2,3-triazol-4-yl)-8-(trifluoromethyl)imidazo[1,2-a]pyridin-2-yl]carbonyl}-4-piperidinyl)-1,3-oxazolidin-2-one] | 0.54 | 0.22
O=C(c1nc2c(C(F)(F)F)cc(-c3ncc[nH]3)cn2c1Cl)N1CCC(N2CCOC2=O)CC1 [Compound 149, 3-(1-{[3-chloro-6-(1H-imidazol-2-yl)-8-(trifluoromethyl)imidazo[1,2-a]pyridin-2-yl]carbonyl}-4-piperidinyl)-1,3-oxazolidin-2-one] | 0.08 | 2.25
O=C(c1nc2c(C(F)(F)F)cc(-c3ccc[nH]3)cn2c1Cl)N1CCC(N2CCOC2=O)CC1 [Compound 150, 3-(1-{[3-chloro-6-(1H-pyrrol-2-yl)-8-(trifluoromethyl)imidazo[1,2-a]pyridin-2-yl]carbonyl}-4-piperidinyl)-1,3-oxazolidin-2-one] | 0.45 | 0.23
Cc1cc(C(F)(F)F)c2nc(C(=O)N3CCC(N4CCOC4=O)CC3)c(Cl)n2c1 [Compound 151, 3-(1-{[3-chloro-6-methyl-8-(trifluoromethyl)imidazo[1,2-a]pyridin-2-yl]carbonyl}-4-piperidinyl)-1,3-oxazolidin-2-one] | 0.5 | 0.65
CCc1cc(C(F)(F)F)c2nc(C(=O)N3CCC(N4CCOC4=O)CC3)c(Cl)n2c1 [Compound 152, 3-(1-{[3-chloro-6-ethyl-8-(trifluoromethyl)imidazo[1,2-a]pyridin-2-yl]carbonyl}-4-piperidinyl)-1,3-oxazolidin-2-one] | 0.07 | 0.05
C=Cc1cc(C(F)(F)F)c2nc(C(=O)N3CCC(N4CCOC4=O)CC3)c(Cl)n2c1 [Compound 153, 3-(1-{[3-chloro-6-ethenyl-8-(trifluoromethyl)imidazo[1,2-a]pyridin-2-yl]carbonyl}-4-piperidinyl)-1,3-oxazolidin-2-one] | 0.07 | 0.08
CC(C)c1cc(C(F)(F)F)c2nc(C(=O)N3CCC(N4CCOC4=O)CC3)c(Cl)n2c1 [Compound 154, 3-(1-{[3-chloro-6-(1-methylethyl)-8-(trifluoromethyl)imidazo[1,2-a]pyridin-2-yl]carbonyl}-4-piperidinyl)-1,3-oxazolidin-2-one] | 0.02 | 0.02
CC(O)c1cc(C(F)(F)F)c2nc(C(=O)N3CCC(N4CCOC4=O)CC3)c(Cl)n2c1 (centres unmarked) [Compound 155, 3-(1-{[3-chloro-6-(1-hydroxyethyl)-8-(trifluoromethyl)imidazo[1,2-a]pyridin-2-yl]carbonyl}-4-piperidinyl)-1,3-oxazolidin-2-one] | 1.08 | 0.63
O=C(c1nc2c(C(F)(F)F)cc(C3CC3)cn2c1Cl)N1CCC(N2CCOC2=O)CC1 [Compound 156, 3-(1-{[3-chloro-6-cyclopropyl-8-(trifluoromethyl)imidazo[1,2-a]pyridin-2-yl]carbonyl}-4-piperidinyl)-1,3-oxazolidin-2-one] | 0.01 | 0.01
O=C(c1nc2c(C(F)(F)F)cc(C(F)F)cn2c1Cl)N1CCC(N2CCOC2=O)CC1 [Compound 157, 3-(1-{[3-chloro-6-(difluoromethyl)-8-(trifluoromethyl)imidazo[1,2-a]pyridin-2-yl]carbonyl}-4-piperidinyl)-1,3-oxazolidin-2-one] | 0.15 | 0.02
O=C(c1nc2c(C(F)(F)F)cc(-c3ccoc3)cn2c1Br)N1CCC(N2CCOC2=O)CC1 [Compound 158, 3-(1-{[3-bromo-6-(3-furanyl)-8-(trifluoromethyl)imidazo[1,2-a]pyridin-2-yl]carbonyl}-4-piperidinyl)-1,3-oxazolidin-2-one] | 0.04 | 0.01
O=C(c1nc2c(C(F)(F)F)cc(-c3ccoc3)cn2c1Br)N1CCC(N2C(=O)COC2=O)CC1 [Compound 159, 3-(1-{[3-bromo-6-(3-furanyl)-8-(trifluoromethyl)imidazo[1,2-a]pyridin-2-yl]carbonyl}-4-piperidinyl)-1,3-oxazolidine-2,4-dione] | 0.03 | 0.03
N#Cc1c(C(=O)N2CCC(N3CCOC3=O)CC2)nc2c(C(F)(F)F)cc(-c3ccoc3)cn12 [Compound 160, 6-(3-furanyl)-2-{[4-(2-oxo-1,3-oxazolidin-3-yl)-1-piperidinyl]carbonyl}-8-(trifluoromethyl)imidazo[1,2-a]pyridine-3-carbonitrile] | 0.01 | 0.01
